Laboratory results taken from patent publication US8889173B2, “Alpha adrenergic receptor agonists for treatment of pain and/or inflammation” (Warsaw Orthopedic, Inc., priority 2008, dated 2014).

Tests used:
[1] = tested on: rat Chronic Constriction Injury model (Bennett Model); experiment: Hargreaves test of thermal hyperalgesia (thermal paw withdrawal latency) in rat chronic constriction injury model; type: in vivo, Wistar rat
Description: (§1) The inventors evaluated the efficacy of a various alpha-2-adrenergic receptor agonists and compared them against saline in the rat Chronic Constriction Injury model (i.e., Bennett Model) using Wistar rats. […] The doses given would mimic those achievable by a continuous release drug depot containing a biodegradable polymer (7 rats in each group).
(§2) Each group received the treatment indicated above for total of 15 days and subjected to the following two tests: (1) the Hargreaves test on days 7 and 14; and (2) the von Frey test on days 8 and 15.
(§3) Results from another rat chronic constriction injury model study similar to that discussed in Example 5, except some drug compositions having predominantly alpha 1 agonist activity and some drug compositions having predominantly alpha 2 agonist activity were given as indicated in the table below. The doses given would mimic those achievable by a continuous release drug depot containing a biodegradable polymer (7 rats in each group).
(§4) Each group received the treatment indicated above for total of 14 days and the following two tests: (1) the Hargreaves test on days 7 and 14; and (2) the von Frey test on days 8 and 15.

[2] = tested on: rat Chronic Constriction Injury model (Bennett Model); experiment: von Frey monofilament test of mechanical allodynia (mechanical threshold) in rat chronic constriction injury model; type: in vivo, Wistar rat
Description: as §1, §2, §3, §4

[3] = 100 micrograms/kg subcutaneous every day for 15 days, days 7 and 14, FIG. 36
[4] = 5 mg/kg subcutaneous every day for 15 days, day 15, vs saline

Q: `Clc1ccc2nsnc2c1NC1=NCCN1` [tizanidine] was tested. Which “pain behavioral response for thermal hyperalgesia” value [1, 3] did it give?
A: statistically significant result of decreasing pain responses

Q: What about the “pain behavioral response for mechanical allodynia” value ([2]; 100 micrograms/kg subcutaneous every day for 15 days, day 15, vs saline, FIG. 35) of the same molecule?
A: statistically significant results of decreasing pain responses

Q: Which “pain behavioral response for thermal hyperalgesia” value ([1]; 1 mg/kg subcutaneous every day for 15 days, day 7, FIG. 37) does the source give for `N=C(N)N/N=C/c1c(Cl)cccc1Cl` [guanabenz] here?
A: statistically significant result of decreasing pain responses

Q: And the “pain behavioral response for mechanical allodynia” value ([2]; 1 mg/kg subcutaneous every day, day 8, vs saline, FIG. 38)?
A: decreased mechanical allodynia

Q: And the “pain behavioral response for mechanical allodynia” value [2, 4]?
A: decreased mechanical allodynia

Q: For `Cc1cc(C(C)(C)C)c(O)c(C)c1CC1=NCCN1` [oxymetazoline], which “pain behavioral response for thermal hyperalgesia” value ([1]; 0.1 mg/kg subcutaneous every day for 15 days, day 7, FIG. 37) is on record?
A: statistically significant result of decreasing pain responses

Q: What about the “pain behavioral response for thermal hyperalgesia” value ([1]; 0.3 mg/kg subcutaneous every day for 15 days, days 7 and 14, FIG. 37) of the same molecule?
A: statistically significant result of decreasing pain responses

Q: What about the “pain behavioral response for mechanical allodynia” value ([2]; 0.1 mg/kg subcutaneous every day for 15 days, day 8 and 15, vs saline group, FIG. 38) of the same molecule?
A: decreasing pain responses

Q: And the “pain behavioral response for mechanical allodynia” value ([2]; 0.3 mg/kg subcutaneous every day for 15 days, day 8 and 15, vs saline group, FIG. 38)?
A: decreasing pain responses

Q: With `Clc1cccc(Cl)c1N=C1NCCN1` [clonidine, 2,6-dichloro-N-2-imidazolidinyldenebenzenamine] as the molecule, how does the “pain behavioral response for thermal hyperalgesia” value ([1]; 0.02 mg/kg subcutaneous every day for 15 days, days 7 and 14) read?
A: statistically significant result of decreasing pain responses

Q: What about the “pain behavioral response for mechanical allodynia” value ([2]; 0.02 mg/kg subcutaneous every day for 15 days, day 15, vs saline, FIG. 35) of the same molecule?
A: statistically significant results of decreasing pain responses

Q: What about the “pain behavioral response (measured as a percentage of baseline) for mechanical allodynia” value ([2]; 0.02 mg/kg/day subcutaneously, compared to unloaded polymer depots, FIG. 4) of the same molecule?
A: reduced the behavioral response

Q: With `Cc1cccc(C(C)c2cnc[nH]2)c1C` (centres unmarked) [medetomidine] as the molecule, how does the “pain behavioral response for thermal hyperalgesia” value [1, 3] read?
A: statistically significant result of decreasing pain responses

Q: What about the “pain behavioral response for thermal hyperalgesia” value ([1]; 200 micrograms/kg subcutaneous every day for 15 days, day 14, FIG. 36) of the same molecule?
A: statistically significant result of decreasing pain responses

Q: And the “pain behavioral response for mechanical allodynia” value ([2]; 200 micrograms/kg subcutaneous every day for 15 days, day 15, vs saline, FIG. 35)?
A: statistically significant results of decreasing pain responses

Q: Which results are given for `N=C(N)NC(=O)Cc1c(Cl)cccc1Cl` [guanfacine]?
A: pain behavioral response for thermal hyperalgesia ([1]; 5 mg/kg subcutaneous every day for 15 days, days 7 and 14, FIG. 36): statistically significant result of decreasing pain responses; pain behavioral response for mechanical allodynia [2, 4]: statistically significant results of decreasing pain responses

Q: For `CNC[C@H](O)c1cccc(O)c1` [phenylephrine], which “pain behavioral response for thermal hyperalgesia” value ([1]; 2 mg/kg subcutaneous every day for 15 days, day 7, FIG. 37) is on record?
A: statistically significant result of decreasing pain responses

Q: And the “pain behavioral response for thermal hyperalgesia” value ([1]; 10 mg/kg subcutaneous every day for 15 days, days 7 and 14, FIG. 37)?
A: statistically significant result of decreasing pain responses

Q: And the “pain behavioral response for mechanical allodynia” value ([2]; 10 mg/kg subcutaneous every day, day 8, vs saline, FIG. 38)?
A: decreased mechanical allodynia
